Holding throughout (assay type): cell-based
The target of one test is T1, HA-ERα D538G (Homo sapiens, UniProt P03372, D538G).
T1 construct: HA; expressed in transfected cells
T1 sequence (P03372 1-595 D538G): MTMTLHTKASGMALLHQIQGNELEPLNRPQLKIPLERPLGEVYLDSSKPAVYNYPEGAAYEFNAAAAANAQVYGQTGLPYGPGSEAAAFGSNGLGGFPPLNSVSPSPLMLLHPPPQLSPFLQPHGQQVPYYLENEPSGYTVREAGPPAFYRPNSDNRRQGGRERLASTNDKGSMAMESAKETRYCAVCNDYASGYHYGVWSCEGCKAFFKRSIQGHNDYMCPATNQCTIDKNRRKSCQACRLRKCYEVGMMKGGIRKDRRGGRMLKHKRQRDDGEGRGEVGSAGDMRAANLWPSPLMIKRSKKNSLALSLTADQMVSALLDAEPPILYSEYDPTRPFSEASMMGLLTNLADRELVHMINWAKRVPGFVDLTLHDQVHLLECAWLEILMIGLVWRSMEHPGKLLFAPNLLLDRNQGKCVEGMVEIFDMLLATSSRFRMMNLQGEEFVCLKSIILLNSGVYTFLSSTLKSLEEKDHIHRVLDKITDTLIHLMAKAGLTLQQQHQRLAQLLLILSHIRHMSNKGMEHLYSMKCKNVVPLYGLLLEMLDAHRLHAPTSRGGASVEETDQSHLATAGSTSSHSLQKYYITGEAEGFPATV
Nature of the test: Luciferase assay, overexpressed ER (3×-ERE-TATA-Luciferase reporter). As to conditions: compound concentration 1 μM, 24 hours. Put shortly: (§1)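 Cells transfected with HA-ERα wild type or mutant, 3×-ERE-TATA firefly luciferase reporter and pRL-TK Renilla, then treated one day later with compound for 24 h.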
A general note: In a reporter assay the amount or activity of a reporter protein is the signal.

The target of the next test is T2, HA-ERα Y537S (Homo sapiens, UniProt P03372, Y537S).
T2 construct: HA; expressed in transfected cells
T2 sequence (P03372 1-595 Y537S): T1 sequence (P03372 1-595 D538G) with Y537S, G538D
The description is as above. The note with it: compound concentration 1 μM, 24 hours. An outline of the steps:
as §1

Another test has as its target T3, HA-ERα wild type (Homo sapiens, UniProt P03372).
T3 construct: HA; expressed in transfected cells
T3 sequence (P03372 1-595): T1 sequence (P03372 1-595 D538G) with G538D
The description is as above. The note with it: compound concentration 1 μM, 24 hours; read-out: Overexpressed ER (% Inhibition) WT. An outline of the steps:
as §1

A further test has as its target T4, CRISPR KI D538G (Homo sapiens, UniProt P03372, D538G).
T4 construct: endogenous in cells; host or cells: CRISPR knock-in clones (cl. 50, cl. 65)
T4 sequence (P03372 1-595 D538G): T1 sequence (P03372 1-595 D538G)
Kind of test: Luciferase assay, CRISPR KI D538G clones. As to conditions: for CRISPR KI (% Inhibition) D538G cl. 50: clone 50; for CRISPR KI (% Inhibition) D538G cl. 65: clone 65. How it is done:
Luciferase assays were performed to determine the efficacy of the example compounds at inhibiting ER or its mutants' ability to activate transcription of genes.
Cells were plated at a density of 0.15×10^6 per well of 24 well plates one day prior to transfection. Cells were transfected with 125 ng (per well) of HA-ERα wild type or mutants, 315 ng (per well) of 3×-ERE-TATA-Luciferase reporter and 50 ng (per well) of pRL-TK Renilla Luciferase plasmid, using Xtremegene (Roche). The cells were treated with the various compounds or Fulvestrant at the indicated doses a day after transfection for 24 hours and luciferase activities were determined using the Dual-Luciferase® Reporter Assay System (Promega) according to manufacturer's instructions. Luciferase bioluminescence measurements were performed with the Veritas™ Microplate Luminometer (Promega). All experiments were conducted in triplicate and the Firefly luciferase activity was normalized with the Renilla luciferase activity of each sample.

The term inhibition denotes the change of the read-out against control, counted positive when it falls.

Numbering of substitutions follows the chain as printed.

For `O=C(NCCCCOc1ccc(C(=C2C3CC4CC(C3)CC2C4)c2ccc(O)cc2)cc1)C12CC3CC(CC1C3)C2` [Example 8, N-(4-(4-((Adamantan-2-ylidene)(4-hydroxyphenyl)methyl)phenoxy)butyl)-hexahydro-2,5-methanopentalene-3a(1H)-carboxamide], the inhibition at 1 µM at HA-ERα D538G was 89%; against HA-ERα Y537S, 31%; on HA-ERα wild type, 83%. Further, on CRISPR KI D538G, the “CRISPR KI (% Inhibition) D538G cl. 50” value stood at 39%. On CRISPR KI D538G, the “CRISPR KI (% Inhibition) D538G cl. 65” value stood at 78%.
Regarding `O=C(NCCCCOc1ccc(C(=C2C3CC4CC(C3)CC2C4)c2ccc(O)cc2)cc1)C1CCCCC1` [Example 11, N-(4-(4-(Adamantan-2-ylidene(4-hydroxyphenyl)methyl)phenoxy)butyl)-cyclohexanecarboxamide], the inhibition at 1 µM against HA-ERα D538G amounted to 91%; on HA-ERα Y537S, 86%; at HA-ERα wild type, 89%. Further, the “CRISPR KI (% Inhibition) D538G cl. 50” value on CRISPR KI D538G came out at 74%. Further, the “CRISPR KI (% Inhibition) D538G cl. 65” value on CRISPR KI D538G came to 84%.
As for `O=C(NCCCCOc1ccc(C(=C2C3CC4CC(C3)CC2C4)c2ccc(O)cc2)cc1)C1CCCCCC1` [Example 12, N-(4-(4-(Adamantan-2-ylidene(4-hydroxyphenyl)methyl)phenoxy)butyl)-cycloheptanecarboxamide], the results for the inhibition at 1 µM against HA-ERα D538G, against HA-ERα Y537S and on HA-ERα wild type were 92%, 58% and 90%, respectively. Also, on CRISPR KI D538G, the “CRISPR KI (% Inhibition) D538G cl. 50” value came to 36%. Besides, at CRISPR KI D538G, the “CRISPR KI (% Inhibition) D538G cl. 65” value is on record as 80%.
On to `O=C(NCCCCOc1ccc(C(=C2C3CC4CC(C3)CC2C4)c2ccc(O)cc2)cc1)[C@H]1C[C@@H]2C=C[C@H]1C2` [Example 9, (1R, 2S, 4R)—N-(4-(4-(Adamantan-2-ylidene(4-hydroxyphenyl)methyl)phenoxy)-butyl)bicyclo[2.2.1]hept-5-ene-2-carboxamide], for which the values for the inhibition at 1 µM against HA-ERα D538G, on HA-ERα Y537S and on HA-ERα wild type were 92%, 33% and 88%, respectively. Moreover, on CRISPR KI D538G, the “CRISPR KI (% Inhibition) D538G cl. 50” value came to 34%. Moreover, on CRISPR KI D538G, the “CRISPR KI (% Inhibition) D538G cl. 65” value was 72%.
Regarding `O=C(NCCCCOc1ccc(C(=C2C3CC4CC(C3)CC2C4)c2ccc(O)cc2)cc1)C12CC3CC(CC(C3)C1)C2` [Example 6, N-(4-(4-(Adamantan-2-ylidene(4-hydroxyphenyl)methyl)phenoxy)-butyl)adamantane-1-carboxamide], the inhibition at 1 µM was 87% against HA-ERα D538G, 62% at HA-ERα Y537S and 84% on HA-ERα wild type. In addition, the “CRISPR KI (% Inhibition) D538G cl. 50” value at CRISPR KI D538G was 68%. For the same compound, the “CRISPR KI (% Inhibition) D538G cl. 65” value at CRISPR KI D538G was determined as 73%.
Taken in the same sequence, the figures for `CC12CC3CC(C)(C1)CC(C(=O)NCCCCOc1ccc(C(=C4C5CC6CC(C5)CC4C6)c4ccc(O)cc4)cc1)(C3)C2` [Example 7, N-(4-(4-(Adamantan-2-ylidene(4-hydroxyphenyl)methyl)phenoxy)butyl)-3,5-dimethyladamantane-1-carboxamide] were 83%, 46%, 83%, 15% and 44%.
In the case of `O=C(NCCCCOc1ccc(C(=C2C3CC4CC(C3)CC2C4)c2ccc(O)cc2)cc1)[C@H]1CC[C@H](C(F)(F)F)CC1` [Example 14, (trans)-N-(4-(4-(Adamantan-2-ylidene(4-hydroxyphenyl)methyl)phenoxy)-butyl)-4-(trifluoromethyl)cyclohexanecarboxamide], the values for the inhibition at 1 µM on HA-ERα D538G, against HA-ERα Y537S and on HA-ERα wild type were 88%, 26% and 81%, respectively. For the same compound, the “CRISPR KI (% Inhibition) D538G cl. 50” value on CRISPR KI D538G came to 67%. Moreover, the “CRISPR KI (% Inhibition) D538G cl. 65” value on CRISPR KI D538G amounted to 73%.
`O=C(NCCCCOc1ccc(C(=C2C3CC4CC(C3)CC2C4)c2ccc(O)cc2)cc1)C1CCC(F)(F)CC1` [Example 13, N-(4-(4-(Adamantan-2-ylidene(4-hydroxyphenyl)methyl)phenoxy)butyl)-4,4-difluorocyclohexanecarboxamide]: the inhibition at 1 µM is 92% at HA-ERα D538G, 46% against HA-ERα Y537S and 90% at HA-ERα wild type. Also, the “CRISPR KI (% Inhibition) D538G cl. 50” value on CRISPR KI D538G was determined as 32%. For the same compound, at CRISPR KI D538G, the “CRISPR KI (% Inhibition) D538G cl. 65” value turned out to be 77%.
Taken in the same sequence, the figures for `O=C(NCCCCOc1ccc(C(=C2C3CC4CC(C3)CC2C4)c2ccc(O)cc2)cc1)C1CCC1` [Example 10, N-(4-(4-(Adamantan-2-ylidene(4-hydroxyphenyl)methyl)phenoxy)butyl)-cyclobutanecarboxamide] were 89%, 11%, 84%, 19% and 65%.
Taken in the same sequence, the figures for `CC(C)(C)OC(=O)N[C@@H](Cc1c[nH]c2ccccc12)C(=O)NCCCCOc1ccc(C(=C2C3CC4CC(C3)CC2C4)c2ccc(O)cc2)cc1` [Example 1, (S)-tert-Butyl (1-((4-(4-(adamantan-2-ylidene(4-hydroxyphenyl)methyl)-phenoxy)butyl)amino)-3-(1H-indol-3-yl)-1-oxopropan-2-yl)carbamate] were 84%, 62%, 71%, 15% and 71%.

For the origin of these results see patent US11667621B2, “Antiestrogen compounds” (STEVENS INSTITUTE OF TECHNOLOGY, priority 2018, dated 2023).
